Data: paper PMC10951066, “The self-reactive FVIII T cell repertoire in healthy individuals relies on a short set of epitopes and public clonotypes” (Frontiers in Immunology, 2024)

Experiments:
[1] = target: HLA-DRB1*0401 (Homo sapiens, UniProt P01903+P01911, A100K/A169T/F76Y/I96L/K127E/L162R/M171V/N62H/P40V/Q125Y/R42H/S133A/S149N/S66Y/V115G/V209L/W38E); experiment: Peptide-MHCII competition binding assay; settings: competition ELISA, pH 5.9, peptide 90.000nM – 0.9nM, HLA-DRB1 30 nM, biotinylated peptide 15nM, duplicate wells; ratios below 10 = good binding; reference peptide […]
Procedure: (§1) Quantitative peptide-MHCII competition binding assays were carried out to determine binding avidities of the 18 20-mer FVIII peptides to 6 HLA-DRB1. Data are presented as ratio between reference peptide IC50/FVIII-peptide IC50 tested. Briefly, non-biotinylated FVIII peptides have been diluted at a concentration of 20 mM in DMSO. 10-µl aliquots of serially diluted (90.000nM – 0.9nM in n-Octyl b-D-Glucopyranoside, 2.5 mg/ml in 1x phosphate buffer, pH 5.9) of non-biotinylated FVIII peptides, were added to duplicate wells of 96-well polypropylene plates. Serially diluted non-FVIII reference peptides known to bind to the specific HLA-DRB1 were added to separate wells as positive controls. Next, the biotinylated peptide at a concentration of 2mM was use to prepare 1000-fold pre-dilution to reach a final concentration of 15nM. The HLA-DRB1 proteins were diluted to 30 nM in n-Octyl β-D-Glucopyranoside, 2.5 mg/ml in 1x phosphate buffer, pH 5.9. […] SA-HRP (diluted 5000x in 1xPBS 0.1% Tween20) was added to each well. The plates were covered and incubated at room temperature for 60 min […] and washed. TMB (100 μl/well) was then added, and the plates were incubated at room temperature for 15-30 min. ELISA stopping solution (0.5M H2SO4) was added and then read on a FLUOstar OPTIMA fluorometer. Sigmoidal binding curves were simulated and IC50 values calculated for the FVIII peptides, based on their competition with the reference peptides for each HLA-DRB1. Data were reported as the ratio between the values of the tested peptide and of the reference peptide. Ratios below 10 correspond to good biding affinity.

[2] = target: HLA-DRB1*0701 (Homo sapiens, UniProt P01903+P01911, A100R/A102G/A103Q/D57E/D86V/E43K/F76Y/K127E/L162R/M171V/P40G/Q125H/Q99D/R33Q/R42Y/R54Q/S133A/S66F/T210M/V115G/Y107V/Y59L/Y89S); experiment: Peptide-MHCII competition binding assay; settings: competition ELISA, pH 5.9, peptide 90.000nM – 0.9nM, HLA-DRB1 30 nM, biotinylated peptide 15nM, duplicate wells; ratios below 10 = good binding; reference peptide PVDLHAFLSQAVFS
Procedure: as §1

[3] = target: HLA-DRB1*0301 (Homo sapiens, UniProt P01903+P01911, A100K/A102G/A103R/A169T/F55Y/I96L/K41T/L162R/M171V/P40S/Q125H/Q178H/Q39Y/R42S/S66N/T106N/T262R/W38E/Y61H); experiment: Peptide-MHCII competition binding assay; settings: competition ELISA, pH 5.9, peptide 90.000nM – 0.9nM, HLA-DRB1 30 nM, biotinylated peptide 15nM, duplicate wells; ratios below 10 = good binding; reference peptide SFLLTDLINRRTPRVDGQ
Procedure: as §1

[4] = target: HLA-DRB1*0101 (Homo sapiens, UniProt P01903+P01911, A100R/D57E/F55L/F60I/F76Y/I96L/L162R/M171V/P40L/Q125E/R42F/V115G/Y59C); experiment: Peptide-MHCII competition binding assay; settings: competition ELISA, pH 5.9, peptide 90.000nM – 0.9nM, HLA-DRB1 30 nM, biotinylated peptide 15nM, duplicate wells; ratios below 10 = good binding; reference peptide […]
Procedure: as §1

[5] = target: HLA-DRB1*1101 (Homo sapiens, UniProt P01903+P01911, A100R/A169T/A87E/I96F/K41T/L162R/M171V/P40S/Q125H/Q178H/Q39Y/Q99D/R42S/S66Y/T262R/V115G/W38E); experiment: Peptide-MHCII competition binding assay; settings: competition ELISA, pH 5.9, peptide 90.000nM – 0.9nM, HLA-DRB1 30 nM, biotinylated peptide 15nM, duplicate wells; ratios below 10 = good binding; reference peptide […]
Procedure: as §1

[6] = tested on: CD4 T cells from healthy donors; experiment: Large-scale CD4 T cell epitope mapping by IFN-γ ELISPOT (16 donors); assay type: cell-based, human; settings: for Donor coverage ( %): of 16 donors; for responding donors: of 16 healthy donors, individual peptide 10 µg/ml; for response intensity ( %): percentage of 872 FVIII-specific T cell lines
From the text: PBMCs were purified from the whole blood of anonymous healthy donors, who gave informed consent (Etablissement Français du Sang, Rungis, France), using Ficoll-Paque®. Monocyte-derived dendritic cells (DCs) were produced from cells isolated using Percoll gradient by 5 days of culture in AIM-V medium (Invitrogen, Villebon-sur-Yvette, France) supplemented with 1,000 U/ml recombinant human (rh) IL-4 and rhGM-CSF (both from R&D Systems, Lille, France). Mature DCs were produced by two supplementary days of culture in the presence of LPS (1 µg/ml) and R848 (10µg/ml). CD4 T cells were isolated from autologous PBMCs by positive selection using magnetic labeling with anti-CD4 mAbs conjugated to magnetic microbeads followed by magnetic cell sorting, as recommended by the manufacturer (Miltenyi Biotec, Bergisch Gladbach, Germany). Immature DCs were loaded overnight at 37 °C with either 0.2 µM of rFVIII, 0.2 µM of ovalbumin, or 0.25 µM of KLH in 96-well U-bottom plates, while mature DCs were used for FVIII peptides (10 ug/ml). CD4 T cell lines were generated in vitro in IMDM (Invitrogen) supplemented with 10% human serum, 0.24 mM glutamine, 0.55 mM asparagine, 1.5 mM arginine (all amino acids from Sigma-Aldrich), 50 U/mL penicillin/50 μg/mL of streptomycin (Invitrogen), 20 IU/mL human IL-2, and 17 IU/ml human IL-7 (premium-grade; Miltenyi Biotec) by three once-per-week rounds of stimulation of CD4 T cells (200,000 per well) with autologous DCs (20,000 per well). 10,000 lymphocytes were collected at day 19 from each T cell line (expanded T cells contained in one well) and their specificity was assessed by using IFN-g ELISPOT.
The T cell lines and APCs were plated at equal number for both stimulated and unstimulated control conditions. […] The spot number was determined by using the ELISPOT Reader System (Autoimmun Diagnostika, Ebinger, Germany). HLA restriction was assessed using monoclonal antibodies (10 μg/ml) specific to HLA-DP (B7/21), HLA-DQ (SPVL3), or HLA-DR (L243).
Based on the T cell epitope prediction software NetMHCpan4.0 ([23]), we selected 63 20-mer peptides that are predicted for their ability to bind promiscuously, with a percentile score below 10%, at least four HLA class II molecules from a selection of 15 preponderant HLA-DR alleles in our panel (as shown in ST1). […] A total of 16 healthy donors with unrelated HLA typing (ST2) were used as sources of T cells to identify FVIII-specific CD4 T cell epitopes. Specific T cell lines were generated by in vitro T cell culture using FVIII and KLH. The peptide specificity of the T cell lines raised against FVIII was assessed by two independent IFN-γ ELISPOT using peptide pools and individual peptides. […] Furthermore, four independent healthy donors were used as sources of T cells to characterize the HLA restriction and to assess the reactivity of T cell lines generated with the 18 peptides toward rFVIII. T cell lines were amplified in vitro for 28 days through stimulation with the pool of 18 peptides and then tested through IFN-γ ELISPOT.

[7] = target: HLA-DRB1*1501 (Homo sapiens, UniProt P01903+P01911); experiment: Peptide-MHCII competition binding assay; settings: competition ELISA, pH 5.9, peptide 90.000nM – 0.9nM, HLA-DRB1 30 nM, biotinylated peptide 15nM, duplicate wells; ratios below 10 = good binding; reference peptide ENPVVHFFKNIVTPR
Procedure: as §1

Row | Sequence | Ratio IC50 DRB1*0401 [1] | Ratio IC50 DRB1*0701 [2] | Ratio IC50 DRB1*0301 [3] | Ratio IC50 DRB1*0101 [4] | Ratio IC50 DRB1*1101 [5] | nb positive T cell lines ([6]; across all 16 donors) | cumulative donor coverage (%) ([6]; cumulative over peptides ranked by donor coverage) | Donor coverage ( %) [6] [%] | responding donors [6] | response intensity ( %) [6] | Ratio IC50 DRB1*1501 [7]
1 | GHTFLVRNHRQASLEISPIT [P292-311, 20-mer FVIII peptide, A1 domain] | 22.5 | 1 | 72 | 34 | 0.05 | 26 | 81 | 75 | 12 | 2,98% | –
2 | TQGVKSLLTSMYVKEFLISS [P2264-2283, 20-mer FVIII peptide, C2 domain] | 5.5 | 0.05 | 17 | 6242 | 0.05 | – | – | 50 | 8 | 1,72% | 480
